# Patent US7988950B2, “Contrast agents endowed with high relaxivity for use in magnetic resonance imaging (MRI) which contain a chelating moiety with polyhydroxylated substituents” (Bracco Imaging S.p.A., priority 2004, dated 2011)
# What was measured:
# [1] = Relaxivity determination (r1p) of Gd complexes at 298 K, 20 MHz, pH 7; format: physicochemical
# Description: As far as the relaxation enhancement property is concerned, a paramagnetic Gd(III) complex is characterized by its relaxivity (r1p) which represents the increase of the proton relaxation rate of an aqueous solution of the Gd(III) complex in comparison to the proton relaxation rate of neat water (R1^o). The relaxivity is usually measured at 298 K and 20 MHz (0.5 T).
# In order to best evaluate the relaxivity properties and the parameters affecting the relaxivity of the agents of the invention, some comparative tests have been performed. In a first experiment, the relaxivity of a number of Gd-based chelated compounds having different molecular weight, all derived from the following [Gd(DTPA-monophosphonate)]^3− basic backbone structure (r1p at 20 MHz and 298K: 6.1 mM^−1s^−1) of formula
# Tested compounds include the Gd-complex of the chelating compounds 1b and 2b of the invention (hereinafter Gd-1b and Gd-2b) as well as a number of different derivatives of the aforementioned backbone moiety selected in order to cover a range of molecular weights of up to about 1800 Dalton. The relaxivity of all of the tested compounds were measured at 298 K and 20 MHz and pH 7. The obtained values, listed in table 5 below (together with the structure of the compounds) have also been plotted against the MW of the complexes (see FIG. 1).
# A second experiment was performed to test the relaxivity of different compounds of the invention, marketed NSA, known LDA and other systems, all containing one coordinated water molecule (q=1). The data were registered at 298K and 20 MHz and pH=7, and plotted against their corresponding MW. Relaxivity data relating to LDA P760 and P792 (LDA contrast agents) are based on literature cited below.
# In addition to the above, please find below as per table 7, other relaxivity values, measured as above indicated, for some other representative compounds of the invention.
# [2] = 1/T1 NMRD profiles / relaxivity over a range of magnetic field strengths; format: physicochemical; conditions: 25° C., 1 mM aqueous solution; from 0.2 to 3 MHz
# Description: As an example, the relaxivity profile of the gadolinium complex of the chelating ligand of the invention 2b (hereinafter referred to as Gd-2b), in the above magnetic field range, has been compared with that of a marketed NSA, i.e. Magnevist®, and that of a blood pool agent, i.e. the macromolecular adduct between Gd-DTPA(BOM)3 and BSA (Bovine Serum Albumin) (FIG. 6).
# The corresponding profile for the above blood pool agent is quite different.
# The stability of the relaxivity properties shown by the compounds of the invention was tested. In a first experiment, the 1/T1 NMRD profiles for some compounds of the invention were acquired over a range of magnetic field strengths ranging from 0.01 to 130 MHz. The profile shown by the Gd-1b chelated compound of the invention is included in FIG. 4, while corresponding profiles for chelated compounds Gd-1c, Gd-2c and Gd-3c are included in FIGS. 5 and 5 bis. A comparison has been also performed for compound Gd-2b over a corresponding profile registered for GD-DTPA (Magnevist®), a marketed NSA, and for GD-DOTA-BSA, a well known blood pool agent.
# Conversely, the relaxivity improvement shown by the blood pool agent rapidly falls dawn over the same range of magnetic field strength.
# [3] = Table 5, 298 K, 20 MHz, pH 7, q=1 derivatives of the DTPA-monophosphonate backbone
# [4] = Table 6, 298K, 20 MHz, pH=7, q=1
# [5] = Table 7, measured as above indicated (298 K, 20 MHz)
molecule,measurement,setting,value
O=C(O)CN(CCN(CCN(CC(=O)O)[C@@H](Cc1ccccc1)C(=O)O)CP(=O)(O)O)[C@@H](Cc1ccccc1)C(=O)O [B 22606],R1p,[1]; [3],7.7 mM⁻¹ s⁻¹
O=C(O)CN(CCN(CCN(CC(=O)O)[C@@H](COCc1ccccc1)C(=O)O)CP(=O)(O)O)[C@@H](COCc1ccccc1)C(=O)O [B 22666],R1p,[1]; [3],7.9 mM⁻¹ s⁻¹
O=C(O)CN(CCN(CCN(CC(=O)O)[C@@H](Cc1c[nH]c2ccccc12)C(=O)O)CP(=O)(O)O)C(Cc1c[nH]c2ccccc12)C(=O)O (stereo partly drawn) [B 22836],R1p,[1]; [3],7.9 mM⁻¹ s⁻¹
O=C(O)CN1CCN(CC(=O)O)CCN(C(COCc2ccccc2)C(=O)O)CCN(CC(=O)O)CC1 (stereo not drawn) [Compound B19106],R1p,[1]; [4],5.5 mM⁻¹ s⁻¹
O=C(O)CN1CCN(C(COCc2ccccc2)C(=O)O)CCN(CC(=O)O)CCN(C(COCc2ccccc2)C(=O)O)CC1 (stereo not drawn) [Compound B19236],R1p,[1]; [4],6.5 mM⁻¹ s⁻¹
O=C(O)CN1CCN(C(COCc2ccccc2)C(=O)O)CCN(C(COCc2ccccc2)C(=O)O)CCN(C(COCc2ccccc2)C(=O)O)CC1 (stereo not drawn) [Compound B19406],R1p,[1]; [4],7.5 mM⁻¹ s⁻¹
O=C(CCC(C(=O)O)N1CCN(C(CCC(=O)NCC(COC(CO)CO)COC(CO)CO)C(=O)O)CCN(C(CCC(=O)NCC(COC(CO)CO)COC(CO)CO)C(=O)O)CCN(C(CCC(=O)NCC(COC(CO)CO)COC(CO)CO)C(=O)O)CC1)NCC(COC(CO)CO)COC(CO)CO (stereo not drawn) [Gd-1c],R1p,[1]; [4],13.84 mM⁻¹ s⁻¹
O=C(O)CCC(C(=O)O)N1CCN(Cc2cccc(C(=O)NCC(CNC(=O)C(O)C(O)C(O)C(O)CO)(CNC(=O)C(O)C(O)C(O)C(O)CO)CNC(=O)C(O)C(O)C(O)C(O)CO)c2)CCN(C(CCC(=O)O)C(=O)O)CCN(C(CCC(=O)O)C(=O)O)CC1 (stereo not drawn) [Gd-1d],R1p,[1]; [5],24 mM⁻¹ s⁻¹
CC(CO)(CO)COCC(CNC(=O)CCC(C(=O)O)N1CCN(C(CCC(=O)NCC(COCC(C)(CO)CO)COCC(C)(CO)CO)C(=O)O)CCN(C(CCC(=O)NCC(COCC(C)(CO)CO)COCC(C)(CO)CO)C(=O)O)CCN(C(CCC(=O)NCC(COCC(C)(CO)CO)COCC(C)(CO)CO)C(=O)O)CC1)COCC(C)(CO)CO (stereo not drawn) [Gd-2c],R1p,[1]; [4],15 mM⁻¹ s⁻¹
O=C(CCC(C(=O)O)N1CCN(C(CCC(=O)NCC(COCC(COC(CO)CO)COC(CO)CO)COCC(COC(CO)CO)COC(CO)CO)C(=O)O)CCN(C(CCC(=O)NCC(COCC(COC(CO)CO)COC(CO)CO)COCC(COC(CO)CO)COC(CO)CO)C(=O)O)CCN(C(CCC(=O)NCC(COCC(COC(CO)CO)COC(CO)CO)COCC(COC(CO)CO)COC(CO)CO)C(=O)O)CC1)NCC(COCC(COC(CO)CO)COC(CO)CO)COCC(COC(CO)CO)COC(CO)CO (stereo not drawn) [Gd-3c],R1p,[1]; [4],19.6 mM⁻¹ s⁻¹
O=C(CC[C@@H](C(=O)O)N1CCN([C@@H](CCC(=O)NC(COC2OC(CO)C(O)C(O)C2O)(COC2OC(CO)C(O)C(O)C2O)COC2OC(CO)C(O)C(O)C2O)C(=O)O)CCN([C@@H](CCC(=O)NC(COC2OC(CO)C(O)C(O)C2O)(COC2OC(CO)C(O)C(O)C2O)COC2OC(CO)C(O)C(O)C2O)C(=O)O)CCN([C@@H](CCC(=O)NC(COC2OC(CO)C(O)C(O)C2O)(COC2OC(CO)C(O)C(O)C2O)COC2OC(CO)C(O)C(O)C2O)C(=O)O)CC1)NC(COC1OC(CO)C(O)C(O)C1O)(COC1OC(CO)C(O)C(O)C1O)COC1OC(CO)C(O)C(O)C1O (stereo partly drawn) [Gd-7c],R1p,[1]; [5],20.4 mM⁻¹ s⁻¹
CC1(N(CC(=O)O)CC(=O)O)CN(C(CCC(=O)N(CCN(CCC(=O)NC(CO)(CO)CO)CCC(=O)NC(CO)(CO)CO)CCN(CCC(=O)NC(CO)(CO)CO)CCC(=O)NC(CO)(CO)CO)C(=O)O)CCN(C(CCC(=O)N(CCN(CCC(=O)NC(CO)(CO)CO)CCC(=O)NC(CO)(CO)CO)CCN(CCC(=O)NC(CO)(CO)CO)CCC(=O)NC(CO)(CO)CO)C(=O)O)C1 (stereo not drawn) [Gd-15a],R1p,[1]; [5],16.7 mM⁻¹ s⁻¹
O=C(O)CN1CCN(CC(=O)O)CCN(CC(=O)O)CCN(CC(=O)O)CC1 [Gd-DOTA],R1p,[1]; [4],4.7 mM⁻¹ s⁻¹
O=C(O)CN(CCN(CC(=O)O)CC(=O)O)CCN(CC(=O)O)CC(=O)O [Gd-DTPA],R1p,[1]; [4],4.7 mM⁻¹ s⁻¹
Gd-DTPA,relaxivity profile over magnetic field strength (NMRD),[2],quite stable though very low
